Measured values from US20050244335A1, “Methods and compositions related to increasing antitumor activity of chemotherapeutic agents” (priority 2004, published 2005).

What was measured:
[1] = Pharmacokinetics of carboplatin in nude mice bearing A549 xenografts; type: in vivo; conditions: for AUC / CL / Cmax / T1/2 / Vss: nude mice bearing A549 xenografts, carboplatin 60 mg/kg iv
Experimental: Pharmacokinetics and Tissue Distribution of Carboplatin. Pharmacokinetic studies were carried out using a protocol similar to that previously described (26) using metabolism cages. Female nude mice bearing human colon cancer LS174T xenografts or human lung cancer A549 xenografts were used (3 animals for each time point). Animals were pre-treated with DEX (s.c., 0.1 mg/day/mouse for 5 days) or saline (as controls) and, at 1 hr after the fifth dose of DEX, were given a single intravenously (i.v.) bolus administration of carboplatin (60 mg/kg) via a tail vein. At various times (5, 15, and 30 min, 1, 2, 4, 8, and 24 hr after carboplatin dosing), blood samples were collected in heparinized tubes and tissue samples removed. Plasma was separated by centrifugation at 20,000 g for 5 min. Tissues including liver, kidneys, spleen, and tumor were taken at various times and immediately blotted on Whatman No. 1 filter paper, trimmed of extraneous fat or connective tissue, weighed, and homogenized in 0.9% NaCl physiological saline (5 mL per gram of wet weight). The resultant homogenates were stored at −70° C. until further analysis. Bone marrow cells were harvested by flushing the femurs with sterile physiological saline as reported previously (30). Briefly, after removing the distal and proximal ends of femur, each end of the bone was punctured with a 20-gauge needle fitted with a 5 mL syringe containing 1 mL of sterile physiological saline (pre-weighed). The bone was then held with a forceps over a test tube and the needle was inserted into the hole in the proximal end. The 1 mL saline was flushed through the bone into the tube by applying gentle, steady pressure to the plunger. The syringe was then filled with 5 ml of air that was gently forced through the bone to remove the remaining saline and bone marrow in the shaft. The resultant bone marrow cell suspension was weighed and lysed by sonicating 5 times for periods of 10 sec. Following centrifugation at 20,000 g for 30 min, the supernatant was removed and stored at −70° C. until further analysis.
HPLC Analysis of Carboplatin in Plasma and Tissues. Carboplatin in biological samples was analyzed by an analytical procedure involving micro-filtration and reversed-phase HPLC (31). 200 μL of plasma or tissue homogenates or bone marrow suspension was added to the reservoir of a Centrifree™ micropartition system. The latter was capped and centrifuged at 2,000 g for 5 min. All filtrates were transferred into a new micro centrifuge tube and 6 μL of the filtrates was injected onto the HPLC column. The HPLC system consisted of a Hewlett Packard 1050 ChemStation with a UV detector (Agilent 1050 series). Determination of Carboplatin was achieved using a LiChrosorb™ diol (10 μm, 250×4.6 mm) analytical column with a LiChroCART 100 RP-18 guard column. The mobile phase for plasma was composed of 98:2 acetonitrile:H2O (vol/vol) and 89:11 acetonitrile: 0.015% H3PO4 (vol/vol) for urine and tissue samples. The flow rates were 2 mL/min (for plasma) and 1.1 mL/min (for urine and tissue samples). The column elute was monitored by UV at 229 nm. Quantitation of plasma or tissue carboplatin was carried out by using an external standard curve (0-4,000.0 μg/mL) that was freshly prepared on a daily basis. Linear regression and correlation analysis were carried out to establish the standard peak-area/concentration curves for carboplatin.
Data and Statistical Analysis.

human cancer xenografts = test: Six murine-human cancer xenograft models overall: efficacy and toxicity; conditions: nude mice; carboplatin 120 mg/kg, gemcitabine 160 mg/kg i.p.
Experimental: Human cancer xenograft models were established using the methods reported previously (26-29). When confluence reached 80%, cultured LS174T, MCF-7, MDA-MB-468, U87-MG, A549 and H1299 cells were harvested from the monolayer cultures, washed with the above indicated serum-free medium and resuspended in the same medium with Matrigel® basement membrane matrix at a 3:1 ratio, and then injected subcutaneously (s.c.) (5×10^6 cells, total volume 0.2 mL) into the left inguinal area of the nude mice. The animals were monitored for activity, physical condition, determination of body weight, and measurement of tumor growth. Tumor growth was determined by caliper measurement in two perpendicular diameters of the implant every other day. Tumor weight (in g) was calculated by the formula, 1/2a×b^2 where “a” is the long diameter and “b” is the short diameter (in cm).
Nude mice bearing human cancer xenografts were randomly divided into various treatment and control groups (5 mice/group). In treatment groups, animals were pre-treated with DEX subcutaneously (s.c., 0.1 mg/day for 5 days, Day −4-0) or saline (as controls). Carboplatin was administered intraperitoneally (i.p.) at a single dose of 120 mg/kg (360 mg/m^2) on day 0.
The antitumor activity (tumor mass) and peripheral blood counts were expressed as mean and standard deviations and the significance of differences were analyzed by ANOVA.
When mean tumor mass reached 44-68 mg, animals were treated with s.c. DEX at a dose of 0.1 mg/day for 5 days, followed by chemotherapy.

For `N.N.O=C([O-])C1(C(=O)[O-])CCC1.[Pt+2]` [carboplatin], the “increase in tumor AUC by DEX pretreatment” value ([1]; A549 nude mice) was 50%, the AUC ([1]; bone marrow, DEX (+)) was 517210 ng·h/mL and the CL ([1]; bone marrow, DEX (+)) was 0.01 mL/g/h. It also gave a Cmax ([1]; bone marrow, DEX (+)) of 27290 ng/mL, a T1/2 ([1]; bone marrow, DEX (+)) of 30 min and a Vss ([1]; bone marrow, DEX (+)) of 2.72 mL/g. It also gave an AUC ([1]; bone marrow, DEX (−)) of 641040 ng·h/mL, a CL ([1]; bone marrow, DEX (−)) of 0.01 mL/g/h and a Cmax ([1]; bone marrow, DEX (−)) of 32580 ng/mL. For the same compound, the T1/2 ([1]; bone marrow, DEX (−)) was 30 min, the Vss ([1]; bone marrow, DEX (−)) was 1.97 mL/g and the AUC ([1]; liver, DEX (+)) was 21680 ng·h/mL. It also gave a CL ([1]; liver, DEX (+)) of 4.79 mL/g/h, a Cmax ([1]; liver, DEX (+)) of 5910 ng/mL and a T1/2 ([1]; liver, DEX (+)) of 60 min. The Vss ([1]; liver, DEX (+)) was 9.05 mL/g, the AUC ([1]; liver, DEX (−)) was 26320 ng·h/mL and the CL ([1]; liver, DEX (−)) was 3.99 mL/g/h. The Cmax ([1]; liver, DEX (−)) was 7000 ng/mL, the T1/2 ([1]; liver, DEX (−)) was 60 min and the Vss ([1]; liver, DEX (−)) was 8.31 mL/g. For the same compound, the AUC ([1]; plasma, DEX (+)) was 66080 ng·h/mL, the CL ([1]; plasma, DEX (+)) was 0.91 mL/g/h and the Cmax ([1]; plasma, DEX (+)) was 411890 ng/mL. The T1/2 ([1]; plasma, DEX (+)) was 6.6 min, the Vss ([1]; plasma, DEX (+)) was 0.15 mL/g and the AUC ([1]; plasma, DEX (−)) was 55220 ng·h/mL. For the same compound, the CL ([1]; plasma, DEX (−)) was 1.09 mL/g/h, the Cmax ([1]; plasma, DEX (−)) was 357340 ng/mL and the T1/2 ([1]; plasma, DEX (−)) was 6.6 min. It also gave a Vss ([1]; plasma, DEX (−)) of 0.17 mL/g, an AUC ([1]; spleen, DEX (+)) of 75590 ng·h/mL and a CL ([1]; spleen, DEX (+)) of 0.79 mL/g/h. The Cmax ([1]; spleen, DEX (+)) was 482140 ng/mL, the T1/2 ([1]; spleen, DEX (+)) was 6.6 min and the Vss ([1]; spleen, DEX (+)) was 0.12 mL/g. The AUC ([1]; spleen, DEX (−)) was 359440 ng·h/mL, the CL ([1]; spleen, DEX (−)) was 0.17 mL/g/h and the Cmax ([1]; spleen, DEX (−)) was 341990 ng/mL. The T1/2 ([1]; spleen, DEX (−)) was 43.8 min, the Vss ([1]; spleen, DEX (−)) was 0.18 mL/g and the AUC ([1]; tumor, DEX (+)) was 15480 ng·h/mL. For the same compound, the CL ([1]; tumor, DEX (+)) was 3.88 mL/g/h, the Cmax ([1]; tumor, DEX (+)) was 64090 ng/mL and the T1/2 ([1]; tumor, DEX (+)) was 10.2 min. The Vss ([1]; tumor, DEX (+)) was 0.94 mL/g, the AUC ([1]; tumor, DEX (−)) was 10160 ng·h/mL and the CL ([1]; tumor, DEX (−)) was 5.90 mL/g/h. The Cmax ([1]; tumor, DEX (−)) was 32150 ng/mL, the T1/2 ([1]; tumor, DEX (−)) was 13.2 min and the Vss ([1]; tumor, DEX (−)) was 1.87 mL/g. For the same compound, the death (human cancer xenografts) was “no death occurred” and the “tolerability by inspection and animal weights” value (human cancer xenografts) was “tolerated well”.
